Entries after “also recorded” stand apart in the source; their conditions may differ.
How the values were obtained:
Fusarium wilt = settings: treatment of potato tuber; cited from earlier work
Fusarium spp. = settings: two storage trials over two years; cited from earlier work
F. oxysporum = experiment: Single spore isolate plates of F. oxysporum exposed to 1,4-DMN vapour; colony count and mycelium diameter; format: cell-based, Fusarium oxysporum
Excerpt: F. oxysporum was isolated from the surface of potato tuber using the Fusarium selective media Nash-Snider, to which cultures were transferred and maintained on nutritionally complex potato dextrose agar plates. DNA sequencing using selective primers NL1, NL2, ITS1F, and ITS2R confirmed the fungus to be F. oxysporum.
A single spore isolation technique was utilized to record the number and growth response of the spores treated with 1,4-DMN in comparison with the spores treated with water (i.e., the Control). Single spore isolate plates were contained in vacuum sealed chambers and incubated at a constant temperature of about 22° C., while exposed to 7.5 μl of 1,4-DMN via aerosol dispersion for four days. After a day of rest, the spores on each plate were measured and counted.
Potato skin scrapings were cultured on the Fusarium selective media Nash Snider Agar, and later transferred and maintained on nutritionally complex Potato Dextrose Agar (PDA) (Step 1.1 in FIG. 1). DNA isolations were performed on single spore isolates using a Power Soil DNA Isolation Kit (Step 1.2 in FIG. 1). Several primers as shown in FIG. 2 were studied for amplification of Fungal DNA. Fusarium selective primers NL1, NL2, ITS1F, and ITS2 allowed PCR amplification of fungal strains genomically similar to Fusarium. […] The DNA were sequenced, and the sequence data were analyzed using NCBI BLASTn sequence alignment (Step 1.4 in FIG. 1). […] The strain identified as F. oxysporum was then subjected to treatments of DMN (7.5 μl) in specialized airtight bins, and incubated at a constant temperature of about 25° C. for four days (Step 1.5 in FIG. 1). […] Then, colony quantity and mycelium diameter were determined (Step 1.6 in FIG. 1).

| Structure (SMILES) | effect in controlling Fusarium wilt development (in words) (Fusarium wilt) | efficacy in suppressing tuber infection caused by Fusarium spp. (in words) (Fusarium spp.) | also measured |
| --- | --- | --- | --- |
| c1ccc2ncccc2c1 [quinoline] | limited effect |  |  |
| OO [hydrogen peroxide] |  | moderately effective |  |
| Cc1ccc(C)c2ccccc12 [1,4-DMN, 1,4-dimethyl naphthalene] |  |  | Average Colony mycelium diameter (F. oxysporum; 7.5 μl 1,4-DMN via aerosol dispersion in sealed chamber, four days, about 22° C. / 25° C., Control 9.89 cm): 2.94 cm; Average Colonies per Plate (F. oxysporum; 7.5 μl 1,4-DMN, four days, Control 4.05): 4.125; Total Colonies (F. oxysporum; 7.5 μl 1,4-DMN, four days, Control 162): 165; mycelium growth of F. oxysporum versus untreated Control (in words) (F. oxysporum; exposure to 1,4-DMN for four days): slower mycelium diameter growth; also recorded: inhibition of mycelium growth |
| CO/C=C(/C(=O)OC)c1ccccc1Oc1cc(Oc2ccccc2C#N)ncn1 [azoxystrobin] |  | moderately effective |  |
| OP(O)O [Phosphorous acid, phosphorous acid] |  | moderately effective |  |
| N#Cc1c[nH]cc1-c1cccc2c1OC(F)(F)O2 [fludioxonil] | limited effect |  |  |

From patent US10842150B2, “Method of controlling Fusarium on potato using lower alkyl naphthalene” (1,4Group, Inc., priority 2018, dated 2020)
